“Also recorded” adds a separate entry of the source.

The target of one assay is T1, CXCR2 receptor (Rattus norvegicus, UniProt P35407).
T1 construct: endogenous in cells; host or cells: primary cortical neurons from Sprague-Dawley rat embryos (E18)
T1 sequence (P35407 1-359): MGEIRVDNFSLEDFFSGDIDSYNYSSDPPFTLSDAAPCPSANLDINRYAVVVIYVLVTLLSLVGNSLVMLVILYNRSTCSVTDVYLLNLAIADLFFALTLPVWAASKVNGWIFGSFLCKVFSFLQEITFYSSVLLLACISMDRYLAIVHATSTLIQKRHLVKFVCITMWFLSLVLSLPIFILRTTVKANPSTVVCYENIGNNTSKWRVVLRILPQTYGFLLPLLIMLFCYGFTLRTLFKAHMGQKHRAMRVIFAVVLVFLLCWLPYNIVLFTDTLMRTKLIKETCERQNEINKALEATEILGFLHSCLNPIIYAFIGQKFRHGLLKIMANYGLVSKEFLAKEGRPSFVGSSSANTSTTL
The experiment in a line: ac-PGP-induced apoptosis in primary cortical neurons, TUNEL stain. The class given is cell-based. The method, then:
First, the mechanism by which ac-PGP induces apoptosis in cortical neurons was investigated. Because ac-PGP is reported to engage neutrophil CXCR2 receptors, whether an established CXCR2 receptor antagonist, SB225002, could influence ac-PGP neurotoxicity was tested.
Cortical neurons were obtained from Sprague-Dawley rat embryos at day 18 of gestation. Cortices were triturated digested with 0.025% trypsin in phosphate buffer saline (PBS) for 10 minutes. Digestion was stopped by the addition of Dulbecco's Modified Eagle Medium (DMEM) containing 10% fetal bovine serum (FBS). Trypsinized cells were filtered using […] disposable cell filters (Becton-Dickinson), washed twice with Neurobasal medium (Gibco) containing 4% FBS, and preplated 4 times for 30 minutes in 150 mm vacuum-plasma treated dishes (Becton-Dickinson). During these preplating steps, primarily non-neuronal cells adhere to the dish, thereby enriching the neuronal population. […] At 7 DIV, cortical cultures were 98% neurons as assessed by microtubule-associated protein 2 (MAP2) antibody labeling and flow cytometry analysis (data not shown). […]
Cortical neurons were obtained from Sprague-Dawley rat embryos at day 18 of gestation. […] At 7 DIV, cortical cultures were 98% neurons as assessed by microtubule-associated protein 2 (MAP2) antibody labeling and flow cytometry analysis (data not shown).

The test system of another assay is cortical neurons. The experiment in a line: oxygen-glucose deprivation (OGD) model of stroke in primary neurons. As to conditions: for protection from OGD: treatment at reoxygenation or 5, 15, 30, or 60 minutes after reoxygenation, vs vehicle. It counts as cell-based, rat. The method, then:
Cortical neurons were obtained from Sprague-Dawley rat embryos at day 18 of gestation. Cortices were triturated digested with 0.025% trypsin in phosphate buffer saline (PBS) for 10 minutes. Digestion was stopped by the addition of Dulbecco's Modified Eagle Medium (DMEM) containing 10% fetal bovine serum (FBS). Trypsinized cells were filtered using […] disposable cell filters (Becton-Dickinson), washed twice with Neurobasal medium (Gibco) containing 4% FBS, and preplated 4 times for 30 minutes in 150 mm vacuum-plasma treated dishes (Becton-Dickinson). During these preplating steps, primarily non-neuronal cells adhere to the dish, thereby enriching the neuronal population. Enriched neurons were plated at a density of 50×10^3/cm2 in Neurobasal medium containing 4% FBS, 25 μM Glutamax (Gibco), and penicillin-streptomycin (Gibco) in while clear-bottomed 96-well plates (353377) or 24-well plates (353226) (Becton-Dickinson) coaled overnight with 50 μg/ml poly-D-lysine. At plating, spaces between wells in 96-well plates were filled with 50 μl sterile water to minimize evaporation of medium at the edges of the dish. Twenty-four hours later (1 day in vitro, 1 DIV), 50% of the medium was replaced with Neurobasal medium, 2% B27 (Gibco), and 4 μM cytosine arabinoside (AraC) (2 μM AraC final). At 5 DIV, 50% of the medium was replaced with Neurobasal, 2% B27. At 7 DIV, cortical cultures were 98% neurons as assessed by microtubule-associated protein 2 (MAP2) antibody labeling and flow cytometry analysis (data not shown).
Cortical neurons were deprived of oxygen and glucose by incubation in deoxygenated glucose-free Hank's buffered saline solution (HBSS). HBSS was prepared as follows: sodium chloride, NaCl, 8.0 g/L, potassium chloride, KCl, 0.4 g/L, potassium phosphate monobasic, KH2PO4, 0.06 g/L, sodium phosphate dibasic, Na2HPO4, 0.048 g/L, magnesium sulfate. MgSO4, 0.098 g/L, calcium chloride, CaCl2, 0.14 g/L, sodium bicarbonate, NaHCO3, 0.35 g/L, D-glucose, C6H12O6, 1.0 g/L. Solutions were adjusted to pH 7.4 and sterilized by vacuum filtration through 0.2 μm polyether sulfone (PES) membranes. Glucose-free HBSS was prepared by omitting glucose and adding an additional half molar amount of NaCl to adjust osmolarity (8.162 g/L NaCl). Glucose-free HBSS was deoxygenated in a gas washing bottle with 95% nitrogen, 5% CO2 for 20 minutes at a flow rate of 3 L/min in a 37° C. water bath. Culture dishes were washed twice with deoxygenated glucose-free HBSS and incubated for 2 hours in glucose-free deoxygenated HBSS (OGD). Normoxic control cells were handled identically but were incubated in a 5% CO2 incubator with normal HBSS pre-equilibrated in a 5% CO2 atmosphere overnight. […]

Take `O=C(Nc1ccc([N+](=O)[O-])cc1O)Nc1ccccc1Br` [SB225002]: the “ac-PGP-induced apoptosis (TUNEL stain), dose comparison” value at CXCR2 receptor (1 nM vs 0.01 and 0.1 nM) is “significantly less apoptotic”. Besides, the “ac-PGP-induced apoptosis (TUNEL stain)” value on CXCR2 receptor (pretreatment of primary cortical neurons before ac-PGP exposure, all doses, vs ac-PGP alone) is listed as “significantly less apoptotic; also recorded: blocked ac-PGP neurotoxicity”. Also, the “neuronal protection compared to administration at reoxygenation” value in the assay on cortical neurons (administered at 15 minutes post-reoxygenation) was “significantly decreased; also recorded: significantly declined”. Moreover, the “apoptosis after 2-hour OGD” value in the assay with cortical neurons (pretreatment, 24-hour reoxygenation, vs vehicle-treated controls) is given as “significantly less apoptotic; also recorded: significant protection from OGD”. Further, the results for the “protection from OGD” value in the assay with cortical neurons and in the assay on cortical neurons (listed as SB2225002) were “significant protection” and “provided neuroprotection”, respectively.

These data come from patent publication US10548942B2, “CXCR antagonistic peptides and uses thereof” (STC.UNM, priority 2013, dated 2020).
